The values that follow come from patent US4518789A, “Phenyl alpha-acyloxyacetamide derivatives and their therapeutic use” (priority 1983, dated 1985).

The subject of data set [1] is scratching or licking induced by pruritic agent. The data set can be described thus: Screening for anti-pruritic effect, systemic (subcutaneous) administration, hairless mouse challenged with pruritic agent. The format is in vivo. The note with it: 5% solution 0.1 ml subcutaneous, twice. As to the method:
Either the mouse or the rat may be used as a screening model for anti-pruritic compounds. Again, the hairless mouse or the fuzzy rat is a preferred strain in each species.
A test composition in a volume of 0.1 ml containing 5% phenyl-alpha-acyloxyacetamide derivative in solution was injected subcutaneously to the hairless mouse. The same procedure was repeated once more 3 hours later. Two hours after the second injection the mouse was challenged with a pruritic composition either applied topically or administered subcutaneously. When the challenging composition containing a pruritic agent was given topically the solution in a volume of 0.05 ml was applied to the left dorsal skin. A control vehicle solution containing no pruritic agent in the same volume of 0.05 ml was topically applied on the right dorsal skin. For the next 30 minutes the mouse was carefully observed for signs and symptoms of scratching or licking at the skin sites where the pruritic composition and the control vehicle solution had been topically applied.
If the mouse scratched or licked only the left side of the skin where the pruritic composition had been topically applied the test composition which was injected subcutaneously at two and five hours earlier was determined to have no anti-pruritic property. […]

Data set [2] deals with itch provoked by papain or histamine dihydrochloride. Kind of data set: Anti-pruritic effect on normal human skin (papain or histamine induced itch). The format is in vivo. The note with it: 2 to 5% topical, normal human adult volunteers. As to the method: Itch provoking pruritic compositions were prepared as follows: papain 0.5% solution was prepared by dissolving papain 50 mg in 10 ml of saline, and histamine 0.2% solution was prepared by dissolving histamine dihydrochloride 20 mg in 10 ml of saline. Itching was provoked or induced as follows: a pruritic composition in a volume of 0.05 ml containing papain or histamine dihydrochloride as a pruritic agent was topically applied on the flexor forearm of normal human adult volunteers and the skin site was gently pricked rapidly through the solution with a 26-gauge needle to the level of the papillary dermis as described by Bernstein et al. (J. E. Bernstein, R. M. Swift, K. Soltani and A. L. Lorincz: Antipruritic Effect of an Opiate Antagonist, Naloxone Hydrochloride in Journal of Investigative Dermatology 78, 82-83, 1982). This technique provoked or induced itch sensation at the test skin site within a few minutes following the topical application of the pruritic composition. After itch sensation had been induced a composition containing 2 to 5% N-ethyl phenyl-alpha-acetoxyacetamide, N-phenethyl phenyl-alpha-acetoxyacetamide or other phenyl-alpha-acyloxyacetamide derivatives of the instant invention was topically applied on the pruritic skin site. The vehicle alone cream containing no active ingredient was used as a control.

Data set [3] deals with Eczemas, and Other Pruritic Disorders. Kind of data set: Topical anti-pruritic effect in patients with pruritic disorders. The note with it: first category compounds, 2 to 5%. The format is in vivo, human.
Excerpt: Patients with various kinds of pruritic disorders participated in this study. The cases included atopic eczema, patchy eczema, chronic eczema of the hands, lichen simplex chronicus, contact allergic eczema, pruritus of the aged, pruritus of hepatic origin, pruritus ani, pruritus vulvae, scalp pruritus and pruritus of other disorders such as mycosis fungoides, psoriasis and pityriasis rubra pilaris.
Therapeutic compositions containing phenyl-alpha-acyloxyacetamides at 2 to 5% concentrations in cream, ointment, lotion or solution were prepared according to the Examples. The medicinal compositions were topically applied by the patient in an amount sufficient to cover the itching area of skin. Applications were made one to two times daily or as frequently as necessary and without occlusive dressings.
Two parameters have been used to compare degrees of anti-pruritic effect of phenyl-alpha-acyloxyacetamides. The first parameter is whether the relief of itching is complete (2+) or incomplete (1+). The second parameter is the number of hours the patient stays free of pruritus after the initial anti-pruritic effect. […] Therefore, the overall anti-pruritic effect of a compound may range from 2+ to 4+. […] 4+ for complete relief and lasting for more than 8 hours.
The next data set has as its system summer eczema-prurigo. The data set can be described thus: Oral anti-scratch (anti-pruritic) treatment of dogs. The format is in vivo. Conditions: for adverse effects on repeated dosing: dog, in vivo, po; for duration of anti-scratch or anti-pruritic effect / drowsiness or intoxication / time to stop scratching / anti-pruritic or anti-scratching effect on repeated dosing: dogs; for duration of anti-scratch or anti-pruritic effect / drowsiness or intoxication / time to stop scratching: oral single dose 5 to 10 mg/kg; for drowsiness or intoxication / time to stop scratching: all three dogs; for anti-pruritic or anti-scratching effect on repeated dosing: oral, repeated at intervals of two to several days. The procedure:
Three dogs with summer eczema-prurigo were treated with oral administration of phenyl-alpha-acyloxyacetamide derivatives. Gelatin capsules containing N-ethyl phenyl-alpha-acetoxyacetamide or N-phenethyl phenyl-alpha-acetoxyacetamide at dosages ranging from 50 mg to 150 mg per capsule were prepared according to Examples. Single doses of 5 mg/kg to 10 mg/kg were administered orally to the dogs.
Oral doses containing N-ethyl phenyl-alpha-acetoxyacetamide or N-phenethyl phenyl-alpha-acetoxyacetamide were administered repeatedly to the dogs at intervals of two to several days.

Data set [4] deals with calming or quieting behaviour. The data set can be described thus: Tranquilizing effect, topical administration in hairless mice. The format is in vivo. Conditions: 5% solution topical. The procedure: Hairless mice, ten in each group, were used in this study. N-phenethyl phenyl-alpha-acetoxyacetamide, N-ethyl phenyl-alpha-acetoxyacetamide or other phenyl-alpha-acyloxyacetamide derivative of the instant invention was prepared as a 5% solution in acetone: water, 8:2 or ethanol:water, 8:2. A test solution was topically applied to the left dorsal skin of hairless mice. The same topical applications were repeated three times at 30 minute intervals. A vehicle alone solution containing acetone and water or ethanol and water was used as a control. For the next 8 hours and also 24 hours later all mice were carefully observed and examined for any signs or evidence of calming or quieting effects caused by the test compound.
Normally when a mouse is picked up by the tail with thumb and forefinger the mouse struggles trying to free itself; and if the mouse is placed on a horizontal metallic grid uniformly spaced at 8 mm, the mouse nervously pulls itself across the grid, again trying to free itself from the restraining grip of the fingers.
If during the above observation period the mouse behaved the same before and after the topical treatment when picked up by the tail and placed on the metallic grid, the test compound was determined to have no significant tranquilizing effect by topical administration.

The test system of data set [5] is calming or sedative effects. Kind of data set: Tranquilizing effect, oral administration in dogs. Conditions: test compounds 5 to 10 mg per kg. Format: in vivo. As to the method: Hairless mice, white hairy mice and dogs were used in these studies.
Three dogs weighing between 10 to 20 kg were given orally N-phenethyl phenyl-alpha-acetoxyacetamide or N-ethyl phenyl-alpha-acetoxyacetamide in gelating capsules at doses of 5 to 10 mg per kg.

Data set [6] has as its system hind limb arthritis secondary to hip dysplasia. The data set can be described thus: Analgesic effects, oral, dogs with arthritis. Format: in vivo. Conditions: two dogs, oral approximately 8 mg per kg. The procedure:
To test whether in addition to tranquilizing effects in animals, analgesic properties of phenyl-alpha-acyloxyacetamide derivatives of the instant invention might exist we administered systemically these compounds to dogs. N-ethyl phenyl-alpha-acetoxyacetamide or N-phenethyl phenyl-alpha-acetoxyacetamide in single oral doses of approximately 8 mg per kg was given to two dogs disabled with hind limb arthritis secondary to hip dysplasia. One dog weighed 23 kg; the other weighed 28 kg.
The disability in both animals was such that they were unable to jump up upon a test table, 45 cm L×45 cm W×45 cm H, on which had been placed a piece of food as an inducement; nor were they able to run about or romp, their movements being limited to walking with evident stiffness of gait.

The next data set deals with pruritus ani. Kind of data set: Topical treatment of pruritus ani. The format is in vivo, human. The note with it: 1 to 5 percent, regular basis. From the text:
(§1) It has already been established through tests in animals and humans that phenyl alpha-acyloxyacetamide derivatives are therapeutically effective for topical or systemic treatment of various dermatologic and other conditions.

The subject of the next data set is common scratching. Kind of data set: Systemic treatment of domestic dogs for common scratching. Conditions: oral single dose 5 to 10 mg per kg. Format: in vivo.
Excerpt: as §1

With `CCNC(=O)C(OC(C)=O)c1ccccc1` (stereo not drawn) [N-ethyl phenyl-alpha-acetoxyacetamide], the Anti-pruritic Effect result in data set [1] is reported as “substantial anti-pruritic effect”. The Anti-pruritic Effect entry in [2] is given as “substantial anti-pruritic effect”. For the same compound, the “Anti-pruritic Effect” value in data set [3] is 4+ (complete relief and lasting for more than 8 hours). In the data set on summer eczema-prurigo, the “adverse effects on repeated dosing” value is reported as “No evidence of adverse effects was detected”; the “duration of anti-scratch or anti-pruritic effect” value is reported as “approximately 8 hours”; the drowsiness or intoxication result is “mentally alert as usual and did not have any signs or symptoms of drowsiness or intoxication”; the “time to stop scratching” value is on record as “one”. Moreover, the “anti-pruritic or anti-scratching effect on repeated dosing” value with summer eczema-prurigo is listed as “the same anti-pruritic or anti-scratching effect”. Moreover, in data set [4], the tranquilizing effect entry was “no detectable signs of sedation”. In addition, the “tranquilizing / sedative effect” value in [5] is “no detectable signs of sedation”. Moreover, in [6], the physical incapacities entry is recorded as “diminished” and the “time after administration at which incapacities were diminished” value is on record as “Two to three”. In the data set on pruritus ani, the “relief from itching and scratching” value was “complete relief from itching and scratching”. Moreover, in the data set on common scratching, the “relief of scratching, duration” value was “more than 8 hours”.

For `CC(=O)OC(C(=O)NCCc1ccccc1)c1ccccc1` (stereo not drawn) [N-phenethyl phenyl-alpha-acetoxyacetamide], the Anti-pruritic Effect result in data set [1] was “substantial anti-pruritic effect”. Also, in data set [2], the Anti-pruritic Effect result is given as “substantial anti-pruritic effect”. For the same compound, the “Anti-pruritic Effect” value in data set [3] was 4+ (complete relief and lasting for more than 8 hours). Further, in the data set with summer eczema-prurigo, the “adverse effects on repeated dosing” value is on record as “No evidence of adverse effects was detected”; the “duration of anti-scratch or anti-pruritic effect” value is listed as “approximately 8 hours”; the drowsiness or intoxication result is “mentally alert as usual and did not have any signs or symptoms of drowsiness or intoxication”; the “time to stop scratching” value is reported as “one”. In addition, the “anti-pruritic or anti-scratching effect on repeated dosing” value in the data set with summer eczema-prurigo is listed as “the same anti-pruritic or anti-scratching effect”. Further, in data set [4], the tranquilizing effect result is “marked degrees of tranquilizing effect”. The “tranquilizing / sedative effect” value in [5] was “mild tranquilizing effect”. For the same compound, in data set [6], the physical incapacities entry is listed as “diminished” and the “time after administration at which incapacities were diminished” value is on record as “Two to three”. Further, the “relief from itching and scratching” value in the data set with pruritus ani was “complete relief from itching and scratching”. In addition, the “relief of scratching, duration” value in the data set on common scratching is recorded as “more than 8 hours”.
